Like-named read-outs stand apart in the source and are kept apart here.
How the values were obtained:
[1] = in vivo; conditions: C57Bl/6, mouse, po; for AUC: Plasma AUC; for Cmax: Plasma Cmax
Procedure: (§2) From the orthotopic HCC and liver damage mouse models described above, blood samples were collected at 1, 4, 7 and 24 hours after once-daily oral administration of 5, 10 and 20 mg/kg regorafenib, respectively, for 5 days. Anti-PD1 antibody was given on days 1 and 4 with dose of 10 mg/kg by intraperitoneal injection. Blood samples were drawn from four to five animals per sampling time point. Regorafenib and its active metabolites M-2, M-4 and M-5 were analyzed in plasma samples using a validated bioanalytical liquid chromatography-tandem mass spectrometry.[25 33] Pharmacokinetic (PK) parameters were derived from the area under the plasma concentration versus time curve (AUC) using a non-compartmental analysis.
(§3) In addition, we evaluated PK parameters in HCC-bearing mice after regorafenib administration alone at doses of 5, 10 and 20 mg/kg or in combination with anti-PD1 therapy at the 10 mg/kg regorafenib dose for 5 days to achieve a steady state.

[2] = tested on: CXCL10; assay: Plasma CXCL10 in patients before and after 2 weeks of regorafenib; type: in vivo, human; conditions: patients with advanced HCC (n=1) and AML (n=7); after 2 weeks of treatment
From the text: Formalin-fixed paraffin-embedded HCC tissue and blood samples were obtained with informed consent from a published cohort of deidentified patients who underwent liver resection at the department of Surgery at Fundeni Clinical Institute, Bucharest, Romania.[31] Furthermore, we collected blood samples with informed consent from patients treated by regorafenib as standard of care (HCC) or in a phase I clinical trial of regorafenib monotherapy in patients with acute myeloid leukemia (AML). Peripheral blood was collected before regorafenib therapy and after 2 weeks of treatment and processed in a Clinical Laboratory Improvement Amendments-certified facility of the Steele Laboratories at MGH. […]
(§1) treated by regorafenib as standard of care (HCC) (using the DFCI Protocol No.: 13-416 “Collection of Specimens and Clinical Data for Patients with Known or Suspected Solid Tumors”, PI, Dr. Juric, MGH) or in a phase I clinical trial of regorafenib monotherapy in acute myeloid leukemia (AML) patients (ClinicalTrials.gov Identifier: NCT03042689, PI, Hobbs, MGH). Both protocols have been IRB approved, and written consent was obtained from all patients.
Protein analyses. […]
Flow cytometry analysis. […] After preparation, cells were suspended in 2ml of PBS with 2% BSA, then counted using a cell counting plate (Kova slide) (if the final concentration of cell exceeded 10^7 cells/ml, a dilution factor was applied). […]

[3] = tested on: RIL-175 cells; assay: CXCL10 secretion by RIL-175 cells in vitro (ELISA); type: cell-based, mouse; conditions: 36 hours
From the text: To determine if CXCL10 was produced by murine HCC cells in response to regorafenib treatment, we next cultured RIL-175 cells with various concentration of regorafenib in vitro and measured the CXCL10 levels by ELISA. […]
as §1
Protein analyses. Western blotting was performed using antibodies against Stat1 (D1K9Y), phosphorylated (p)-Stat1 (Tyr701) (D4A7), Stat3 (79D7), p-Stat3 (Ser727) (Cell Signaling Technology, Danvers, MA), and IFN-γ (EPR1108) (Abcam, Cambridge, MA). Multiplexed protein array analysis was performed for protein extracts from whole tumors, using V-PLEX Proinflammatory Panel 1 Mouse Kit, V-PLEX Cytokine Panel 1 Mouse Kit and V-PLEX […] (Meso-Scale Discovery, Rockville, MD). For cell supernatant collection, 1x10^6 of RIL-175 cells were cultured in DMEM medium with 2% FBS and regorafenib was given in a various dose.
Supernatant was collected after 36hr of incubation and multiplexed protein array analysis was done using the same kit above.
Flow cytometry analysis. Tumor tissues were extracted from the mice, weighted and minced with a scalpel. Hank’s buffered salt solution (HBSS) with 1.5mg/ml of collagenase and hyaluronidase was added to the minced tissues and incubated for 30 min at 37°C. After incubation, digested tissues were passed through the 70μm cell strainer and washed with PBS with 2% BSA. After preparation, cells were suspended in 2ml of PBS with 2% BSA, then counted using a cell counting plate (Kova slide) (if the final concentration of cell exceeded 10^7 cells/ml, a dilution factor was applied). One hundred microliters of this suspension were used per subsequent flow cytometry staining. […]

[4] = in vivo
Procedure: as §2, §3

[5] = tested on: RIL-175 orthotopic HCC; assay: Survival, orthotopic RIL-175 HCC in Rag1–/–/C57Bl/6 mice; type: in vivo, mouse; conditions: regorafenib 10 mg/kg; Rag1–/– mice lacking functional T cells
Procedure: Regorafenib was provided by Bayer and administered by oral gavage daily at a dose of 5, 10 and 20 mg/kg in 34% 1,2-propandiol (Sigma-Aldrich), 34% PEG400 (Sigma-Aldrich), 12% pluronic F68 (Thermo Fischer Scientific, Waltham, Massachusetts, USA), and 20% water, as per manufacturer’s recommendation. Mouse anti-PD1 antibody (clone RMP-014) was purchased from BioXcell (Lebanon, New Hampshire, USA) and Mouse IgG isotype control was purchased from Thermo Fischer Scientific. The STAT3 inhibitor LLL12 was purchased from BioVision (Milpitas, California, USA). Antimouse PD1 antibody or IgG (control) were given intraperitoneally at a dose of 10 mg/kg thrice weekly, as described.[11] Daily gavage of vehicle and intraperitoneal injection of 10 mg/kg of isotype-matched IgG were given as control treatments for anti-PD1 antibody. For the survival studies, moribund status was used as the end point and moribund was defined as symptoms of prolonged distress, >15% of weight loss compared with the starting date, body condition score >2 and tumor size of >24 mm in diameter.
All statistical analyzes were performed using Stata software, V.14.1 (StataCorp, College Station, Texas, USA). […] Quantitative variables were compared using Student’s t-test. […] Statistical analyses in the survival experiments were performed by Cox proportional hazard model and HR and 95% CIs were calculated as well.

[6] = tested on: HCA1 cells; assay: CXCL10 secretion by HCA1 cells in vitro; type: cell-based, mouse; conditions: 36hr; compared with increase in RIL-175 cells

CNC(=O)c1cc(Oc2ccc(NC(=O)Nc3ccc(Cl)c(C(F)(F)F)c3)c(F)c2)ccn1 [regorafenib]
AUC ([1]; 5 mg/kg): 1.45 µg·h/mL
Cmax ([1]; 5 mg/kg): 0.108 µg/mL
AUC ([1]; 10 mg/kg): 2.16 µg·h/mL
Cmax ([1]; 10 mg/kg): 0.201 µg/mL
Tmax ([1]; 10 mg/kg, Plasma Tmax): 1 h
Tmax ([1]; 10 mg/kg, Tumor Tmax): 7 h
AUC ([1]; 20 mg/kg): 5.75 µg·h/mL
Cmax ([1]; 20 mg/kg): 0.485 µg/mL
Concentration of plasma CXCL10 [2]: increased concentration
Regorafenib concentration at peak CXCL10 secretion [3]: 1 µM
Level of CXCL10 secreted by RIL-175 cells ([3]; various concentrations, n=6): significantly increased
Tumor AUC ([4]; C57Bl/6, mouse, po, 5 mg/kg): 2.32 µg·h/mL
Tumor AUCnorm ([4]; C57Bl/6, mouse, po, 5 mg/kg): 0.465 kg·h/L
Tumor Cmax ([4]; C57Bl/6, mouse, po, 5 mg/kg): 191 µg/kg
Plasma AUC ([4]; C57Bl/6, mouse, po, 10 mg/kg): 2.14 µg·h/mL
Plasma Cmax ([4]; C57Bl/6, mouse, po, 10 mg/kg): 0.19 µg/mL
Tumor AUC ([4]; C57Bl/6, mouse, po, 10 mg/kg): 4.67 µg·h/mL
Tumor AUCnorm ([4]; C57Bl/6, mouse, po, 10 mg/kg): 0.467 kg·h/L
Tumor Cmax ([4]; C57Bl/6, mouse, po, 10 mg/kg): 291 µg/kg
Tumor AUC ([4]; C57Bl/6, mouse, po, 20 mg/kg): 7.93 µg·h/mL
Tumor AUCnorm ([4]; C57Bl/6, mouse, po, 20 mg/kg): 0.396 kg·h/L
Tumor Cmax ([4]; C57Bl/6, mouse, po, 20 mg/kg): 575 µg/kg
Cmax in the tumor tissue, combination group versus R10 group ([4]; mouse): higher
Plasma AUC0–24 and Cmax versus dose ([4]; mouse): dose-proportional
Tumor AUC0–24 and Cmax versus dose ([4]; mouse): dose-proportional increase
Plasma AUCnorm ([4]; mouse, po, 5 mg/kg): 0.290 kg·h/L
Plasma AUCnorm ([4]; mouse, po, 10 mg/kg): 0.241 kg·h/L
Plasma AUCnorm ([4]; mouse, po, 20 mg/kg): 0.287 kg·h/L
Survival [5]: no significant benefit
Level of CXCL10 secreted by HCA1 cells [6]: to a lesser extent

— paper PMC7689089, “Regorafenib combined with PD1 blockade increases CD8 T-cell infiltration by inducing CXCL10 expression in hepatocellular carcinoma” (Journal for Immunotherapy of Cancer, 2020)
